Assay results from patent publication US20100184596A1, “METHOD FOR THE CONTROL OF WEEDS IN TURF” (SYNGENTA CROP PROTECTION, INC., priority 2007, published 2010).

Key:
Type in all cases: in vivo
[1] = tested on: St. Augustinegrass v. Delmar; experiment: Phytotoxicity via granule application (Table B3.1)
Method: (§1) The phytotoxicity of the compound of formula I to turfgrass species was tested. The compound was applied by distribution of granule formulations of formula I, post emergence, to turfgrass species at two rates. All treatments were watered-in 1 day after application. Percentage phytotoxicity assessments were taken at various timepoints.
Two granule formulations were made and tested. Granule A is an inert granule formulation, comprising 99.06 wt % DG Lite 150 granules, 0.14 wt % compound of formula I, 0.50 wt % Sunspray 6N, and 0.30 wt % HiSil 233. The compound of formula I was added to the DG Lite granules while blending in a Continental Rollo-mixer.
Sunspray 6N oil was then sprayed onto the granules, and HiSil added to dry excess liquid and improve granule flowability. The granules were blended in the mixer for 20-30 minutes until homogeneous, and passed through a −12/+60 mesh to remove over and under sized particles.
Granule B is a fertiliser granule formulation, comprising 54.65 wt % urea, 6.63 wt % triple super phosphate, 4.95 wt % potassion chloride, 9.91 wt % huber clay, 7.22 wt % HiSil 233, 0.16 wt % compound of formula I, […] agnique ME 181, 2.07 wt % stepfac 8180, and 11.98 wt % water. […] The remaining HiSil was added and granules dried at 40-60° C., to remove excess liquid. Finally, the granules were passed through a −12/+60 mesh to remove over and under sized particles.

[2] = tested on: Perennial ryegrass/fine fescue mix; experiment: Phytotoxicity via post emergence spray application (Table B2.4)
Method: The phytotoxicity of the compound of formula I to turfgrass species was tested. The compound was applied via post emergence spray to a range of warm and cool season turfgrass species at various rates and spray treatment treatment regimes. Percentage phytotoxicity assessments were taken at various timepoints.

[3] = tested on: clover and dandelion in turfgrass varieties; experiment: Example B1, conclusion in words; conditions: in Kentucky bluegrass, tall fescue and perennial ryegrass at the tested application rates
Method: (§2) The selectivity of the compound of formula I in turf (removal of grassy and broadleaf weeds) has been tested in turfgrass varieties selected from Kentucky bluegrass, tall fescue and perennial ryegrass and in […] selected from clover (an aggressive perennial weed) and dandelion (a weed of perennial horticultural crops and gardens which may also be a problem in some annual crops, particularly where reduced tillage is practiced).
(§3) The trials were conducted in Champaign, Ill., U.S. (Table B1.1) and Hudson, N.Y., U.S. (Table B1.2) under field conditions. Turfgrasses were maintained at approximately a 2.5″ height, like a home lawn. Mixed turf and weed stands were present. The test compounds were applied with a CO2 pressurized backpack sprayer by spraying in the form of an aqueous suspension (prepared from a wettable powder) in a concentration of 210 to 280 g/ha. The plots were then mowed and irrigated as needed. After 22 and 28 days respectively, the test is visually evaluated (100%=total damage to plant; 0%=no damage to plant).

Perennial ryegrass = experiment: Selective post-emergence herbicidal action, field trial Champaign (Table B1.1); conditions: 22 days after application
Method: as §2, §3

Tall fescue = experiment: as above; conditions: 22 days after application
Method: as §2, §3

Clover = experiment: as above; conditions: 22 days after application
Method: as §2, §3

Kentucky blue grass = experiment: as above; conditions: 22 days after application
Method: as §2, §3

Zoysiagrass v. Empire = experiment: Phytotoxicity in combination with safeners, post emergence spray (Table B4.1); conditions: no safener, 100 g ai/ha
Method: The phytotoxicity to turfgrass of the compound of formula I in combination with various safeners was tested. The combinations were applied by post emergence spray application. Percentage phytotoxicity assessments were taken at various timepoints. The safeners tested in these trials were cloquintocet-mexyl, cyprosulfamide, a compound of formula 2.3, and isoxadifen-ethyl.

[4] = tested on: Taraxacum officinale (dandelion); experiment: Weed control via post emergence spray, in perennial ryegrass/fine fescue mix (Table B5.5)
Method: The weed control efficacy of the compound of formula I was tested. The compound was applied via post emergence spray to a range of weeds, at various rates and spray treatment treatment regimes. Percentage weed control assessments were taken at various timepoints.

[5] = tested on: Perennial ryegrass v. blend of Bright Star, Citation Fore and Quick Trans; experiment: Phytotoxicity via granule application, various inert granules (Table B3.4); conditions: 8 DAT
Method: as §1
In Tables B3.3 and B3.4, the granular formulations tested were made by spraying the compound of formula I onto various inert granules. In each of these trials, the granule formulations were tested at a higher rate than the corresponding spray application

COCCOCc1nc(C(F)(F)F)ccc1C(=O)C1=C(O)C2CCC(C2)C1=O (centres unmarked) [Formula I, 4-Hydroxy-3-[2-(2-methoxyethoxymethyl)-6-trifluoromethylpyridine-3-carbonyl]-bicyclo[3.2.1]oct-3-en-2-one]
% phytotoxicity ([1]; Granule A (inert), 112 g ai/ha, 7 DAT): 8.30%
% phytotoxicity ([1]; Granule A (inert), 112 g ai/ha, 20 DAT): 0.00%
% phytotoxicity ([1]; Granule A (inert), 280 g ai/ha, 7 DAT): 20.00%
% phytotoxicity ([1]; Granule A (inert), 280 g ai/ha, 11 DAT): 5.70%
% phytotoxicity ([1]; Granule A (inert), 280 g ai/ha, 15 DAT): 3.30%
% phytotoxicity ([1]; Granule B (fertiliser), 112 g ai/ha, 7 DAT): 23.30%
% phytotoxicity ([1]; Granule B (fertiliser), 112 g ai/ha, 11 DAT): 10.00%
% phytotoxicity ([1]; Granule B (fertiliser), 112 g ai/ha, 15 DAT): 5.00%
% phytotoxicity ([1]; Granule B (fertiliser), 280 g ai/ha, 11 DAT): 20.00%
% phytotoxicity ([2]; 1 appl, 140 g ai/ha, 6 DAT): 4.00%
% phytotoxicity ([2]; 1 appl, 140 g ai/ha, 14 DAT): 18.75%
% phytotoxicity ([2]; 1 appl, 140 g ai/ha, 21 DAT): 6.75%
% phytotoxicity ([2]; 1 appl, 140 g ai/ha, 28 DAT): 2.50%
% phytotoxicity ([2]; 1 appl, 140 g ai/ha, 34 DAT): 0.50%
% phytotoxicity ([2]; 1 appl, 140 g ai/ha, 39 DAT): 0.00%
% phytotoxicity ([2]; 1 appl, 140 g ai/ha, 49 DAT): 3.75%
% phytotoxicity ([2]; 1 appl, 280 g ai/ha, 6 DAT): 4.50%
% phytotoxicity ([2]; 1 appl, 280 g ai/ha, 14 DAT): 25.00%
% phytotoxicity ([2]; 1 appl, 280 g ai/ha, 21 DAT): 6.25%
% phytotoxicity ([2]; 1 appl, 280 g ai/ha, 28 DAT): 1.75%
% phytotoxicity ([2]; 1 appl, 280 g ai/ha, 34 DAT): 1.25%
% phytotoxicity ([2]; 1 appl, 280 g ai/ha, 39 DAT): 0.00%
% phytotoxicity ([2]; 1 appl, 280 g ai/ha, 49 DAT): 0.00%
% phytotoxicity ([2]; 2 appl, 140 g ai/ha, 6 DAT): 3.00%
% phytotoxicity ([2]; 2 appl, 140 g ai/ha, 14 DAT): 20.00%
% phytotoxicity ([2]; 2 appl, 140 g ai/ha, 21 DAT): 6.75%
% phytotoxicity ([2]; 2 appl, 140 g ai/ha, 28 DAT): 2.75%
% phytotoxicity ([2]; 2 appl, 140 g ai/ha, 34 DAT): 10.50%
% phytotoxicity ([2]; 2 appl, 140 g ai/ha, 39 DAT): 8.75%
% phytotoxicity ([2]; 2 appl, 140 g ai/ha, 49 DAT): 4.25%
% phytotoxicity ([2]; 2 appl, 280 g ai/ha, 6 DAT): 3.50%
% phytotoxicity ([2]; 2 appl, 280 g ai/ha, 14 DAT): 28.75%
% phytotoxicity ([2]; 2 appl, 280 g ai/ha, 21 DAT): 11.00%
% phytotoxicity ([2]; 2 appl, 280 g ai/ha, 28 DAT): 17.50%
% phytotoxicity ([2]; 2 appl, 280 g ai/ha, 34 DAT): 22.50%
% phytotoxicity ([2]; 2 appl, 280 g ai/ha, 39 DAT): 23.75%
% phytotoxicity ([2]; 2 appl, 280 g ai/ha, 49 DAT): 10.00%
selective weed control in turfgrass, in words [3]: suitable to combat undesired broadleaf weeds like clover and dandelion in turfgrass varieties
% damage (Perennial ryegrass; 210 g/ha): 0%
% damage (Perennial ryegrass; 280 g/ha): 0%
% damage (Tall fescue; 210 g/ha): 0%
% damage (Tall fescue; 280 g/ha): 0%
% damage (Clover; 210 g/ha): 88%
% damage (Clover; 280 g/ha): 92%
% damage (Kentucky blue grass; 210 g/ha): 0%
% damage (Kentucky blue grass; 280 g/ha): 0%
% phytotoxicity (Zoysiagrass v. Empire; 6 DAT): 11.70%
% phytotoxicity (Zoysiagrass v. Empire; 12 DAT): 63.30%
% phytotoxicity (Zoysiagrass v. Empire; 19 DAT): 68.30%
% phytotoxicity (Zoysiagrass v. Empire; 27 DAT): 51.70%
% phytotoxicity (Zoysiagrass v. Empire; 35 DAT): 40.00%
% control ([4]; 1 appl, 140 g ai/ha, 14 DAT): 32.50%
% control ([4]; 1 appl, 140 g ai/ha, 21 DAT): 87.50%
% control ([4]; 1 appl, 280 g ai/ha, 14 DAT): 37.50%
% control ([4]; 1 appl, 280 g ai/ha, 21 DAT): 90.00%
% control ([4]; 2 appl, 140 g ai/ha, 14 DAT): 47.50%
% control ([4]; 2 appl, 140 g ai/ha, 21 DAT): 87.50%
% control ([4]; 2 appl, 280 g ai/ha, 14 DAT): 41.25%
% control ([4]; 2 appl, 280 g ai/ha, 21 DAT): 90.00%
% phytotoxicity ([5]; Agsorb LUM GA granule, 520 g ai/ha): 20.0%
% phytotoxicity ([5]; Agsorb LUM MS granule, 520 g ai/ha): 5.8%
% phytotoxicity ([5]; Agsorb RUM GA granule, 520 g ai/ha): 18.8%
% phytotoxicity ([5]; Bio Dac granule, 520 g ai/ha): 13.3%
% phytotoxicity ([5]; DG Lite granule, 520 g ai/ha): 18.8%
% phytotoxicity ([5]; Eco Gran granule, 520 g ai/ha): 18.8%
% phytotoxicity ([5]; Non dispersing extruded granules, 520 g ai/ha): 18.8%
% phytotoxicity ([5]; Oil dry, 520 g ai/ha): 6.3%
% phytotoxicity ([5]; Spray, 260 g ai/ha): 31.3%
